# Laboratory results as given in US12569465B2, “Method for activating follicles by means of using small-molecule compound, and preparation thereof” (TSINGTAO A-SMART MEDICAL TECHNOLOGY CO., LTD., priority 2020, dated 2026).
# What was measured:
# [1] = system: PD2 mouse ovaries (primordial follicles); test: In vitro culture of PD2 mouse ovaries, follicle counting; format: cell-based; conditions: VCD 1-1000 nM on first day of culture, then 3 days normal medium, compared with control group
# Description: (§1) Neonatal 2-day (PD2) or 12-day (PD12) C57bl/6 mice (provided by Shandong University Experimental Animal Center) were executed by decapitation and the ovaries and surrounding tissues were dissected and separated under a dissecting microscope, and the excised ovaries were placed in Leibovitz's L-15 medium (containing 10% fetal bovine serum+0.5% penicillin+0.5% streptomycin). The adipose tissue was dissected and separated. The separated ovaries were washed three times in PBS.
# (§2) Configure ovarian medium: 1 mg/ml bovine serum albumin (BSA, Cat #A4161-1G, Sigma), 1 mg/ml AbluMAX II Lipid-Rich BSA (Cat #11021029, Gibco), 5% Insulin-Transferrin-Selenium (ITS-G) (Cat #41400-045, Gibco), 0.5% Penicillin+0.5% Streptomycin and 100 nM VCD were added into DMEM/F12 (Cat #11039-021, Gibco) medium. The prepared medium was mixed and added to a six-well plate with 1.5 ml of medium per well. A sieve (Cat #PICMORG50, Millipore) was put on the medium and placed in the incubator to preheat.
# (§3) The separated ovaries were transferred to the ovarian medium with a pipette, washed three times and placed on the upper sieve of the pre-warmed medium. A drop of medium was added around the ovaries in the upper sieve to keep the area around the ovaries moist. The six-well plates were placed in a 37° C., 5% CO2 incubator for four consecutive days, and the lower layer of medium was changed daily. […]
# PI3K-Akt pathway = test: Western blot for phosphorylation of proteins associated with follicle activation in the ovary; format: cell-based; conditions: PD2 mouse ovaries; 10 nM VCD for 2-3 min in vitro
# Method: PD2 mice were dissected in autopsy solution (Leibovitz's L-15 medium, […], Gibco; +10% fetal bovine serum (FBS)) after execution, washed twice in ovarian medium and incubated in ovarian medium. After incubation in medium with or without VCD for 3 min. ovarian tissue was collected and lysed in RIPA lysis solution (Cat #89900, Thermo) for digestion. Proteins were denatured and separated by SDS PAGE and transferred to PVDF membranes (Millipore). The membranes were incubated with primary antibodies followed by incubation with HRP-conjugated secondary antibodies and the bands were examined using an enhanced chemiluminescence detection kit (Bio-Rad).
# (§4) anti-rabbit aromatase (Cat #NBP1-45360, Novus, 1:2000), anti-rabbit phosphor-AKT (Serine 473) (D9E) (Cat #4060, Cell Signaling, 1:500), anti-rabbit phosphor-FoxO1 (Threonine 24)/FoxO3a (Threonine 32) (Cat #9464, Cell Signaling, 1:500), anti-rabbit phosphor-P-S6 (Serine 235/236) (Cat #4858, Cell Signaling, 1:1000), anti-rabbit phosphor-P-S6 (Serine 240/244) (Cat #2215, Cell Signaling, 1:1000), anti-rabbit phosphor-P70S6k (Threonine 389) (Cat #9205, Cell Signaling, 1:1000), anti-rabbit (Cat #7074S, CST) or anti-mouse (Cat #7076S, CST).
# Two-day-old (PD2) mouse ovaries were isolated and cultured in vitro according to the method described in Example 1. […]
# [2] = system: PD12 mouse ovaries (secondary follicles); test: In vitro culture of PD12 mouse ovaries, secondary follicle counting; format: cell-based; conditions: 4 days with VCD 1-1000 nM, compared to control group
# Description: as §1, §2, §3
# [3] = system: PD12 C57bl/6 female mice ovaries; test: Follicle development in neonatal mice in vivo; design: species or system mouse; conditions: 20 or 160 mg/kg intraperitoneal, 5 consecutive days, compared to saline control
# Method: PD12 C57bl/6 mice in the same litter were divided into experimental and control groups according to body weight. The experimental mice were weighed and given either 20 mg/kg or 160 mg/kg of VCD by intraperitoneal injection, while the control mice were given the same volume of saline. After […] of continuous administration, the mice were executed and the ovaries were dissected to separate the adipose tissue under the microscope and fixed in 4% PFA. Dehydrated sections were used to observe and count the development of follicles in the ovaries at different times.
# According to the method described in Example 1, the same litter of PD12 C57bl/6 female mice was divided into experimental and control groups according to body weight and given 20 mg/kg or 160 mg/kg of VCD by intraperitoneal injection, while the control mice were given the same volume of saline. Each group (N=6) was administered for 5 consecutive days, and then the mice were executed and the collected ovaries were stained to observe the morphology as shown in FIG. 3A (yellow arrows indicate early sinus follicles and red arrows indicate sinus follicles).
# [4] = system: 10-12 month old C57bl/6 ovaries; test: Ovulation stimulation experiment in old mice; format: in vivo, mouse; conditions: 80 mg/kg intraperitoneal, 5 days, then PMSG/hCG
# Method: 10-12 month old C57bl/6 […] were divided into experimental and control groups according to body weight, and the experimental group was weighed and injected intraperitoneally with 80 mg/kg of VCD, while the control group was given the same volume of saline. After 5 days of continuous administration, 5 units of PMSG were injected to the experimental group and the control group, and 10 IU of hCG was injected 48 hours later to induce secondary ovulation. Mice were executed 16 hours after hCG injection, and both oviducts were collected and placed in M2 dissecting solution (Cat #M7167, Sigma), and the oocyte-granulosa cell complexes were seen when cutting the dilated oviducts under a dissecting microscope. The granulosa cell complexes from each mouse were transferred to a droplet of hyaluronidase (Cat #90101, Fujifilm Irvine Scientific) and the number of eggs per mouse was counted under a microscope after the granulosa cells around the oocytes had been digested.
# According to the method described in Example 1, 10-12 month old C57bl/6 […] were divided into experimental and control groups according to their body weight, and the experimental group was weighed and injected intraperitoneally with 80 mg/kg of VCD, while the control group was given the same volume of saline. […]
# aromatase [5] = test: Aromatase expression in primary mouse granulosa cells; format: cell-based; conditions: PD20 primary granulosa cells; VCD 1-1000 nM, 24 h
# Description: as §4
# Granulosa cells were isolated from the ovaries of PD20 mice according to the method described by Reddy P et al, Science 2008, 319(5863):611-613 and Liu Y X et al Biol Reprod 1986, 35(1):27-36, from which primary granulosa cell lines were obtained. They were treated with different concentrations of VCD (0, 1 nM, 10 nM, 100 nM, 1000 nM) for 24 h, using 50 ng/ml FSH as control.
# aromatase [6] = test: Aromatase expression in KGN cells; format: cell-based, human; conditions: VCD 1-1000 nM, 24 h
# Description: as §4
# (§5) Human-derived granulocyte-like cell line KGN (provided by Prof. Toshihiko Yanase, Fukuoka University, Japan) was cultured in DMEM/F12 medium. KGN were treated with different concentrations of VCD (0, 1 nM, 10 nM, 100 nM, 1000 nM) for 24 h, using 50 ng/ml FSH as control.
# KGN cells = test: Estradiol (E2) levels in KGN cell culture supernatants (ELISA); format: cell-based, human; conditions: 24 h, versus control group
# Method: KGN cell supernatants were collected after 24 hours of cell culture for the detection of E2 levels. The procedure of the assay followed the instructions of the E2 Assay Kit (Human Estradiol (E2) ELISA Kit, Cat #KAQ0621, Invitrogen).
# as §5
# [7] = system: primordial and primary follicles; conditions: rodents; prior studies; cited from earlier work
structure (smiles),measurement,setting,value
"C1CC2OC2CC1C1CO1 (stereo not shown) [VCD, 4-vinylcyclohexene diepoxide]",number of primordial follicles and early primary follicles,[1],significantly increased
same,"activation of PI3K-Akt pathway (phosphorylation of involved proteins, Western blot)",PI3K-Akt pathway,significantly activate
same,number of secondary follicles,[2],significantly increased
same,follicles close to the preovulatory stage in the ovaries,[3],more follicles close to the preovulatory stage
same,"follicle counts (sinus follicles, corpus luteum) in ovaries",[4],more sinus follicles as well as newly formed corpus luteum
same,MII oocytes ovulated,[4]; versus saline control,more oocytes
same,expression level of aromatase in mouse granulosa cells,aromatase [5],significantly increased
same,expression level of aromatase in KGN,aromatase [6],significantly increased
same,level of estrogen (E2) in cell supernatant,KGN cells,significantly higher
same,ovotoxicity to follicles,[7],induces atretic degeneration of primordial and primary follicles
